Test results as given in patent US5869494A, “Uses for barbituric acid analogs” (priority 1997, dated 1999).

Tested on: Daudi human lymphoma cells
Test: Cytotoxicity for lymphoma cells (Daudi)
Type: cell-based
Settings: Homo sapiens, Daudi, 150 μg/ml, time not stated; read-out: cell kill
Procedure: In the following examples, tumor cells were treated with varying concentrations of compounds C1, C2, C4 or C5 dissolved in absolute ethanol. To limit any non-specific toxicity, the final concentration of ethanol was not allowed to exceed 0.5%. Stock concentrations of 5 mg/ml or 20 mg/ml were used. Viability of cells was determined in some studies by the trypan blue dye exclusion method. In other studies, cell viability/proliferation activity was determined by MTT assay by using a kit obtained from Promega, (Promega Corp., Madison, Wis. 53711). For this assay, a 100 μl cell suspension containing 5-10^3 monolayer cells or 1×10^5 suspension cells was placed in the wells of a 96-well microtiter plate. After overnight incubation, cells were treated with different concentrations of the test compound. Control wells received vehicle only. After 24, 48, 72 or 96 h of incubation, 50 μl of MTT dye solution was added. After 4 h of incubation at 37° C., 100 μl of solubilization/stop solution was added. After another h of incubation, cells were mixed using a multi-channel pipet and the absorption of the dye color was recorded at 570 nm using a plate reading absorption spectrophotometer.
The viability of the cells was
Compounds C4 and C5 were also tested for toxicity against human lymphoma Daudi cells.

O=C1CC(=O)NC(=S)N1 [Compound C4]
cytotoxicity at 150 µg/mL: < 20%

CN1C(=O)CC(=O)N(C)C1=S [Compound C5]
cytotoxicity at 150 µg/mL: < 20%
